One data set relates to T-cell. Briefly: Immunosuppressive activity in anti-CD3/anti-CD28-stimulated human T cells assessed as reduction in cell viability after 96 hrs by CFSE dye based flow cytometric analysis. In kind it is functional.
Data set [1] deals with 3T3-L1. Briefly: Induction of glucose uptake in mature mouse 3T3L1 adipocytes assessed as [3H]2-deoxy-D-glucose uptake at 25 uM preincubated for 24 hrs followed by [3H]2-deoxy-D-glucose additon and measured after 10 mins by scintillation counting method relative to control. In kind it is functional.
A short description of data set [2]: Cytotoxicity against human naive T cells assessed as reduction in cell viability after 96 hrs by flow cytometric analysis. In kind it is cell-based. In general terms: Flow cytometry measures light scatter and fluorescence of single cells or particles in a stream.
In data set [3] the test system is 3T3-L1. Put plainly: Induction of glucose uptake in mature mouse 3T3L1 adipocytes assessed as [3H]2-deoxy-D-glucose uptake at 10 uM preincubated for 24 hrs followed by [3H]2-deoxy-D-glucose additon and measured after 10 mins by scintillation counting method relative to control. The data set is classed as functional.

The source made the active and inactive calls. No cut-off for these calls is given here. Bounds are passed on as bounds.

Take `CC(=O)[C@@H](C)[C@H](O)[C@@H](C)c1ccc(C)cc1/C=C/C(=O)O`: the result with T-cell and in the data set on 3T3-L1 [1] was inactive.

Consider `CCC(=O)O[C@@H]([C@H](C)C(C)=O)[C@@H](C)c1ccc(CO)cc1/C=C/CO`, for which the outcome in the data set on T-cell and with 3T3-L1 [1] was inactive.

Take `CCC(=O)O[C@@H]([C@H](C)C(C)=O)[C@@H](C)c1ccc(C)cc1/C=C/CO`: the outcome with T-cell and in the data set on 3T3-L1 [1] was inactive.

In general, CC50 refers to the concentration at which the toxic effect on the cells reaches its halfway point. The term IC50 denotes the midpoint of a concentration-inhibition curve. `CCC1=CC(=O)[C@@H](C)[C@@H]([C@@H](C)c2ccc(C)cc2/C=C/CO)O1`: in data set [2], the 50% cytotoxic concentration (CC50) at 96 h was > 80 µM. The IC50 in the data set on T-cell stood at 12.5 µM. Also, the Activity in the data set on 3T3-L1 [1] was found to be 21.1%.

Consider `CC(=O)[C@@H](C)[C@H](O)[C@@H](C)c1ccc(CO)cc1/C=C/CO`, for which the result with T-cell and in the data set on 3T3-L1 [1] was inactive.

Regarding `COc1ccc2cc3[n+](cc2c1OC)CCc1cc2c(cc1-3)OCO2` [BERBERINE], the Activity with 3T3-L1 [3] turned out to be 25.5%.

Turning to `CC(=O)[C@@H](C)[C@H](O)[C@@H](C)c1ccc(C)cc1/C=C/CO`, the result in the data set with T-cell and with 3T3-L1 [1] was inactive.

As to `CCC1=CC(=O)[C@@H](C)[C@@H]([C@@H](C)c2ccc(CO)cc2/C=C/CO)O1`, the result in the data set on T-cell and in the data set on 3T3-L1 [1] was inactive.

As to `CC(=O)OCc1ccc([C@H](C)[C@@H](O)[C@H](C)C(C)=O)c(/C=C/CO)c1`, in the data set with T-cell, the outcome was inactive. The Activity with 3T3-L1 [1] amounted to 28.4%.

With `Cc1ccc([C@H](C)[C@@H](O)[C@H](C)[C@H](C)O)c(/C=C/CO)c1`, the half-maximal cytotoxic concentration (CC50) at 96 h in data set [2] is > 80 µM. For the same compound, the IC50 in the data set with T-cell turned out to be 14.3 µM. Further, the outcome with 3T3-L1 [1] was inactive.

Take `C[C@@H]([C@H](O)[C@@H](C)c1ccc(CO)cc1/C=C/CO)[C@H](C)O`: the result in the data set with T-cell and in the data set on 3T3-L1 [1] was inactive.

The values are drawn from ChEMBL document CHEMBL4342455, “Benwamycins A-G, Trialkyl-Substituted Benzene Derivatives from a Soil-Derived Streptomyces” (J Nat Prod, 2020).
